Test: Antagonist activity at CCR5 receptor expressed in HeLa-P4 cells co-expressing CD4 assessed as inhibition of infusion to HIV gp120 expressed in CHO-tat10 cells after 20 hrs by cell-cell fusion assay

**Q.** With `CC(=O)N[C@@H](CCN1[C@@H]2CC[C@H]1C[C@@H](n1c(C)nc3c1CN(Cc1ccccc1)CC3)C2)c1ccccc1` [endo-N-((S)-3-(3-(5-benzyl-2-methyl-4,5,6,7-tetrahydro-3H-imidazo[4,5-c]pyridin-3-yl)-8-azabicyclo[3.2.1]octan-8-yl)-1-phenylpropyl)acetamide] as the molecule, how does the IC50 read?
**A.** 29 nM

**Q.** With `COC(=O)N1CCc2nc(C)n([C@H]3C[C@H]4CC[C@@H](C3)N4CC[C@H](NC(C)=O)c3cccc(F)c3)c2C1` [endo-methyl 3-(8-((S)-3-acetamido-3-(3-fluorophenyl)propyl)-8-azabicyclo[3.2.1]octan-3-yl)-2-methyl-6,7-dihydro-3H-imidazo[4,5-c]pyridine-5(4H)-carboxylate] as the molecule, how does the IC50 read?
**A.** 0.1 nM

**Q.** Which IC50 does the source give for `COC(=O)N1CCc2nc(C)n([C@H]3C[C@H]4CC[C@@H](C3)N4CC[C@H](NC(C)=O)c3ccccc3)c2C1` [endo-methyl 3-(8-((S)-3-acetamido-3-phenylpropyl)-8-azabicyclo[3.2.1]octan-3-yl)-2-methyl-6,7-dihydro-3H-imidazo[4,5-c]pyridine-5(4H)-carboxylate] here?
**A.** 0.3 nM

**Q.** For `CC(=O)N[C@@H](CCN1[C@@H]2CC[C@H]1C[C@@H](n1c(C)nc3c1CN(S(C)(=O)=O)CC3)C2)c1ccccc1` [endo-N-((S)-3-(3-(2-methyl-5-(methylsulfonyl)-4,5,6,7-tetrahydro-3H-imidazo[4,5-c]pyridin-3-yl)-8-azabicyclo[3.2.1]octan-8-yl)-1-phenylpropyl)acetamide], which IC50 is on record?
**A.** 2 nM

**Q.** Which IC50 does the source give for `CC(=O)N[C@@H](CCN1[C@@H]2CC[C@H]1C[C@@H](n1c(C)nc3c1CN(C(C)=O)CC3)C2)c1ccccc1` [endo-N-((S)-3-(3-(5-acetyl-2-methyl-4,5,6,7-tetrahydro-3H-imidazo[4,5-c]pyridin-3-yl)-8-azabicyclo[3.2.1]octan-8-yl)-1-phenylpropyl)acetamide] here?
**A.** 0.4 nM

**Q.** Which IC50 does the source give for `Cc1nc(C(C)C)n([C@H]2C[C@H]3CC[C@@H](C2)N3CC[C@H](NC(=O)C2CCC(F)(F)CC2)c2ccccc2)n1` [endo-4,4-difluoro-N-((S)-3-(3-(5-isopropyl-3-methyl-1H-1,2,4-triazol-1-yl)-8-azabicyclo[3.2.1]octan-8-yl)-1-phenylpropyl)cyclohexanecarboxamide] here?
**A.** 1.4 nM

**Q.** Which IC50 does the source give for `COC(=O)N[C@@H](CCN1[C@@H]2CC[C@H]1C[C@@H](n1c(C)nc3c1CN(C(C)=O)CC3)C2)c1cccc(F)c1` [endo-methyl(S)-3-(3-(5-acetyl-2-methyl-4,5,6,7-tetrahydro-3H-imidazo[4,5-c]pyridin-3-yl)-8-azabicyclo[3.2.1]octan-8-yl)-1-(3-fluorophenyl)propylcarbamate] here?
**A.** 0.2 nM

**Q.** With `CC(=O)N[C@@H](CCN1[C@@H]2CC[C@H]1C[C@@H](n1c(C)nc3c1CN(C(=O)C(C)C)CC3)C2)c1ccccc1` [endo-N-((S)-3-(3-(5-isobutyryl-2-methyl-4,5,6,7-tetrahydro-3H-imidazo[4,5-c]pyridin-3-yl)-8-azabicyclo[3.2.1]octan-8-yl)-1-phenylpropyl)acetamide] as the molecule, how does the IC50 read?
**A.** 0.4 nM

**Q.** For `COC(=O)N[C@@H](CCN1[C@@H]2CC[C@H]1C[C@@H](n1c(C)nc3c1CN(C(=O)OC)CC3)C2)c1cccc(F)c1` [endo-methyl 3-(8-((S)-3-(3-fluorophenyl)-3-(methoxycarbonylamino)propyl)-8-azabicyclo[3.2.1]octan-3-yl)-2-methyl-6,7-dihydro-3H-imidazo[4,5-c]pyridine-5(4H)-carboxylate], which IC50 is on record?
**A.** 0.2 nM

**Q.** Which IC50 does the source give for `CC(=O)N[C@@H](CCN1[C@@H]2CC[C@H]1C[C@@H](n1c(C)nc3c1CN(C)CC3)C2)c1ccccc1` [endo-N-((S)-3-(3-(2,5-dimethyl-4,5,6,7-tetrahydro-3H-imidazo[4,5-c]pyridin-3-yl)-8-azabicyclo[3.2.1]octan-8-yl)-1-phenylpropyl)acetamide] here?
**A.** 5 nM

**Q.** With `CCC(=O)N1CCc2nc(C)n([C@H]3C[C@H]4CC[C@@H](C3)N4CC[C@H](NC(C)=O)c3ccccc3)c2C1` [endo-N-((S)-3-(3-(2-methyl-5-propionyl-4,5,6,7-tetrahydro-3H-imidazo[4,5-c]pyridin-3-yl)-8-azabicyclo[3.2.1]octan-8-yl)-1-phenylpropyl)acetamide] as the molecule, how does the IC50 read?
**A.** 0.4 nM

**Q.** For `CC(=O)N[C@@H](CCN1[C@@H]2CC[C@H]1C[C@@H](n1c(C)nc3c1CN(C(C)C)CC3)C2)c1ccccc1` [endo-N-((S)-3-(3-(5-isopropyl-2-methyl-4,5,6,7-tetrahydro-3H-imidazo[4,5-c]pyridin-3-yl)-8-azabicyclo[3.2.1]octan-8-yl)-1-phenylpropyl)acetamide], which IC50 is on record?
**A.** 3 nM

**Q.** For `CC(=O)N[C@@H](CCN1[C@@H]2CC[C@H]1C[C@@H](n1c(C)nc3ccccc31)C2)c1ccccc1` [endo-N-((S)-3-(3-(2-methyl-1H-benzo[d]imidazol-1-yl)-8-azabicyclo[3.2.1]octan-8-yl)-1-phenylpropyl)acetamide], which IC50 is on record?
**A.** 0.5 nM

**Q.** Which IC50 does the source give for `CC(=O)N[C@@H](CCN1[C@@H]2CC[C@H]1C[C@@H](n1c(C)nc3c1CNCC3)C2)c1ccccc1` [endo-N-((S)-3-(3-(2-methyl-4,5,6,7-tetrahydro-3H-imidazo[4,5-c]pyridin-3-yl)-8-azabicyclo[3.2.1]octan-8-yl)-1-phenylpropyl)acetamide] here?
**A.** 9 nM

**Q.** Which IC50 does the source give for `COC(=O)N[C@@H](CCN1[C@@H]2CC[C@H]1C[C@@H](n1c(C)nc3c1CN(C(C)=O)CC3)C2)c1ccccc1` [endo-methyl(S)-3-(3-(5-acetyl-2-methyl-4,5,6,7-tetrahydro-3H-imidazo[4,5-c]pyridin-3-yl)-8-azabicyclo[3.2.1]octan-8-yl)-1-phenylpropylcarbamate] here?
**A.** 0.6 nM

Source: BindingDB's records for doi:10.1021/jm100978n (Pfizer, 2011)
